One assay concerns the target T1, LingBSH (Limosilactobacillus ingluviei, UniProt A0A0R1U3N2).
T1 construct: gene FC43_GL000624; heterologously expressed and purified; homotetramer; species inferred from the abbreviation Ling
T1 sequence (A0A0R1U3N2 2-327): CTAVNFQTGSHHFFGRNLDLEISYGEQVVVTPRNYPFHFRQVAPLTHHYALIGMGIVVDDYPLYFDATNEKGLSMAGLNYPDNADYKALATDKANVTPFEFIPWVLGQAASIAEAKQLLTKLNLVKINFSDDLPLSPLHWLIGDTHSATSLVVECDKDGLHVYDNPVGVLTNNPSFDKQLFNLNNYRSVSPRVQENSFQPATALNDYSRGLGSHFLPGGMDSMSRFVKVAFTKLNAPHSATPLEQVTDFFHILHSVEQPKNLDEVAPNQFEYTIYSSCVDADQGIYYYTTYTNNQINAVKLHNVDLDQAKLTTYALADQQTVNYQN
In words: deconjugation of AA-CA pool by LC-IMS-MS. Type of assay: biochemical. The following applies: pool of CA conjugated to 22 amino acids.

The target in a further assay is T2, LgasBSHa (Lactobacillus gasseri, UniProt A0A805Z5R7).
T2 construct: gene bsh; heterologously expressed and purified; homotetramer, neighbouring monomer donates loop to active site
T2 sequence (A0A805Z5R7 2-316): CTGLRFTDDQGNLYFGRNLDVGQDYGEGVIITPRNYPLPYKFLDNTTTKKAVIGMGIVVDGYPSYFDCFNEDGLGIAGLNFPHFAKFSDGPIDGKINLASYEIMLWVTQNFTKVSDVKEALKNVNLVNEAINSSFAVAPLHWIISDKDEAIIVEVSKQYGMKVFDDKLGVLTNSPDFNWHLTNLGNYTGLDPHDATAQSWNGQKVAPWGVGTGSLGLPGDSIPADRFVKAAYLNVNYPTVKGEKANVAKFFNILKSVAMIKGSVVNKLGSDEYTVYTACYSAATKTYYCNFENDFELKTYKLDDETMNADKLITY
As to the kind of experiment: X-ray crystallography. Type of assay: binding. To be noted: active site.

`C[C@H](NC(=O)CC[C@@H](C)[C@H]1CC[C@H]2[C@@H]3[C@H](O)C[C@@H]4C[C@H](O)CC[C@]4(C)[C@H]3C[C@H](O)[C@]12C)C(=O)O` [Ala-CA]: the “% deconjugation after 5 minutes” value on LingBSH (also purified Ala-CA (enzyme not named in that sentence)) was “Ala and Ser-conjugated BAs are efficiently processed”. Turning to `C[C@H](CCC(=O)O)[C@H]1CC[C@H]2[C@@H]3[C@H](O)C[C@@H]4C[C@H](O)CC[C@]4(C)[C@H]3CC[C@]12C` [CDCA], the X-ray crystallography entry at LgasBSHa (ternary complex with taurine) is reported as “LgasBSHa was resolved in complexes with taurine or taurine plus CDCA”. Take `C[C@H](CCC(=O)N[C@@H](CO)C(=O)O)[C@H]1CC[C@H]2[C@@H]3[C@H](O)C[C@@H]4C[C@H](O)CC[C@]4(C)[C@H]3C[C@H](O)[C@]12C` [Ser-CA]: the “% deconjugation after 5 minutes” value on LingBSH (also purified Ser-CA (enzyme not named in that sentence)) is “Ala and Ser-conjugated BAs are efficiently processed”. On to `NCCS(=O)(=O)O` [taurine], for which the X-ray crystallography result on LgasBSHa (complexes with taurine alone and with taurine plus CDCA) is reported as “LgasBSHa was resolved in complexes with taurine or taurine plus CDCA”.

The values above are taken from publication doi:10.1101/2022.03.24.485529v3, “Distinct bile salt hydrolase substrate preferences dictate C. difficile pathogenesis” (biorxiv, 2022).
